The source of these data is patent EP1527784B1, “Method for extracting antineoplastic components from Bupleurum scorzonerifolium and composition comprising lactones” (Buddhist Tzu Chi General Hospital, priority 2003, dated 2005).

≈ marks a conversion by molar mass, not a printed value.

One assay relates to A549-T12. The assay is described as follows: Annexin V-FLOUS / PI flow cytometry for apoptosis, Taxol-resistant cells. Particulars: Homo sapiens, 48 hours, untreated group 6.8%, read-out: ratio of apoptotic tumor cell. In kind it is cell-based. The text has this: (§1) The following embodiments are described with Taxol-resistant tumor cell A549-T12 (passage cultured from lung cancer cell line A549 cells with low concentration of taxol) as an example to test the effect of BS-A and its pure compounds (these represent chaihulactone and chaihulactone analogues). Flow cytometry, cytotoxicity, and biomolecular examinations are adopted to estimate the mechanism of Bupleurum scorzonerifolium extracts on Taxol-resistant tumor cells.
FIGs. […] Among these figures, X-axis represents the fluorescent brightness of tumor cells with antibody Annexin V-FLOUS whereas Y-axis represents the fluorescent brightness of tumor cell with antibody PI. […] This indicates isochaihulactone has better induction for apoptosis of Taxol-resistant tumor cell line than other chaihulactone analogues.
(In flow cytometry, cells or beads pass a laser one at a time.)

The subject of the next assay is p21. Nature of the assay: Western blotting of tumor suppressor p21. Format: cell-based, human. Particulars: A549 cells, FIG. 5, 1 day or 3 days.
Assay [1] has as its system human hepatoma cell line J5, ovarian cancer cell line OVCAR-3, human malignant glioblastoma cell line DBTRG-05MD, lung cancer cell line A549 and colorectal …. Nature of the assay: MTT cytotoxicity screening of extracts and components on a tumor cell line panel. Format: cell-based. Particulars: MTT assay / drug screening; Table 1 cited but not given. The procedure:
Each of the aforementioned heterocyclic compounds from each extract as well as the acetone crude extracts of Bupleurum scorzonerifolium are assayed to measure the antineoplastic activity. It was shown that majority of antineoplastic components of Bupleurum scorzonerifolium are retained in the BS-AE and BS-ME. The BS-HE and BS-CE hardly have any tumor-suppressing effects. Besides, the extracts can be further purified using chromatography method (e.g. low pressure liquid chromatography or high performance liquid chromatography (HPLC)), such that fractions are collected separately after each elution to obtain the pure compounds mentioned above.
Moreover, from chemical analysis of the main representative molecular structure of the eighth component, it was observed that the compound shares a common feature shown in formula (I) as having a γ-butyrolactone-centred heterocyclic compound with Z configuration or E configuration at carbon 2(5), or pharmacologically compatible salts, esters, ketones or their derivatives. [drawing 19] where the heterocyclic compound may have a 3R or 3S configuration, X can be N, O, S, or Se, andA, B can be selected from the following substituents: [drawing 20] where R1, R2, R3, R4, R5 can be selected from hydrogen atom, a halogen atom, a hydroxyl group, a sulfoxyl group, an amino group, a methoxyl group, and a nitro group. […]
In general terms: Formazan colour is commonly taken as a measure of viable cells.

Assay [2] concerns A549 cells. Nature of the assay: Cell cycle analysis by flow cytometry (PI). In kind it is cell-based, human. As to conditions: FIG. 4; concentration not given. How it is done: Furthermore, flow cytometry is employed to observe the changes in cell cycle before and after the addition of different extracts from Bupleurum scorzonerifolium to A549 cells. In figures 2A through to 2D, X-axis represents chromosome numbers (2N, 4N, etc.) of tumor cells in contact with the antibody, Y-axis represents the fluorescent brightness of Propidium Iodide (PI). It is clearly noted that before treatment lung cancer cell line A549 is mainly at stage of G0/G1, but when 60 µg/ml of BS-AE and 600 µg/ml of BS-ME are added to the tumor cells, the tumor cells are arrested at G2/M stage. This is particularly the case for BS-ME.

The subject of another assay is β-tubulin. Nature of the assay: Immunoblot of soluble and particular (polymerized) β-tubulin in A549 cells. Format: cell-based, human. As to conditions: FIG. 7. (In general: Immunoblotting shows a protein as a band on a membrane.)
Assay [3] deals with A549 cells. The assay is described as follows: Annexin V-FLOUS / PI flow cytometry for apoptosis. As to conditions: Homo sapiens, 48 hours, untreated group 3.8%, read-out: proportion of cell death (apoptosis). Format: cell-based. How it is done:
In A549 cells, 20 µM of Isochaihulactone and 60 µg/ml of BS-AE are added to A549 cell line. After 48 hours of treatment, flow cytometry is utilized to detect the staining results between Annexin V-FLOUS and PI. In FIGs. 3A through to 3C, X-axis represents the fluorescent brightness of tumor cells with antibody Annexin V-FLOUS, and Y-axis represents the fluorescent brightness of tumor cells with antibody PI. From the diagrams, it was shown that the untreated group has only 3.8% of apoptosis, whereas A549 cells treated with Isochaihulactone and BS-AE has much higher proportion of cell death (about 30-40%).

In a further assay the test system is p53. The assay is described as follows: Western blotting of tumor suppressor p53. Format: cell-based, human. As to conditions: A549 cells, FIG. 5, 1 day or 3 days.
In a further assay the test system is A549-T12 cells. The assay is described as follows: MTT cytotoxicity assay on Taxol-resistant lung cancer cells. Format: cell-based. Particulars: Taxol-resistant human lung cancer cell line A549-T12; read-out: concentration that causes 50% growth inhibition (IC50).
From the text: On the other hand, when the BS-AE containing γ-butyrolactone heterocyclic compounds, such as isochaihulactone and BS-AE are applied on Taxol-resistant tumor cell line, for example, human lung cancer cell line A549-T12, they also show anti-tumor effects on the resistant tumor cells. […] Furthermore, the tumor-suppressing effects of those Bupleurum scorzonerifolium extracts after isolated by the extraction method of this invention are more prominent.
as §1
Furthermore, a lower dose (2-4 µg/ml) of isochaihulactone is required to induce apoptosis on A549-T12 cells than that of A549 cells (8-10 µg/ml).

The subject of a further assay is tumor cells. Particulars: in two years; initial treatment stage; cited from earlier work.

Regarding `COc1ccc(/C=C2\C(=O)OC[C@@H]2Cc2ccc3c(c2)OCO3)cc1OC` [BS-15, Isokaerophyllin], the cytotoxicity at 8 µg/mL in the assay with A549-T12 was 23.1%.

Regarding `COc1cc(/C=C2\C(=O)OC[C@@H]2Cc2ccc3c(c2)OCO3)cc(OC)c1OC` [isochaihulactone, Isochaihulactone], the cytotoxicity at 8 µg/mL in the assay on A549-T12 turned out to be 30.6%. Besides, the “expression level of tumor suppressor p21” value with p21 is “increase in expression level”. Moreover, the “antineoplastic effect (comparison among extracts and components)” value in [1] is reported as “most prominent anti-tumor effects”. Moreover, the “cell cycle stage of tumor cells” value with A549 cells [2] is “arrest at the stage G2/M”. In the assay with β-tubulin, the “particular form (polymerized β-microtubule)” value was “increases” and the “soluble form (non-polymerized β-microtubule)” value was “significantly diminishes”. Also, the cytotoxicity at 20 µM in the assay with A549 cells [3] lay within 30 to 40%. Besides, the “expression level of tumor suppressor p53” value in the assay on p53 is listed as “increase in expression level”. Also, the IC50 with A549-T12 cells was in the range of 2 to 4 µg/mL (≈ 5.02 to 10 µM).

For the compound `CC(=O)O[C@H]1C(=O)[C@@]2(C)[C@H]([C@H](OC(=O)c3ccccc3)[C@]3(O)C[C@H](OC(=O)[C@H](O)[C@@H](NC(=O)c4ccccc4)c4ccccc4)C(C)=C1C3(C)C)[C@]1(OC(C)=O)CO[C@@H]1C[C@@H]2O` [Taxol, Paclitaxel], the “improvement of survival rate of the patient” value in the assay on tumor cells is given as “about 15%”.
